This passage reports GI50 and TGI results from PubChem BioAssay (NCI).

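48-hour exposure; five concentrations; linearly interpolated endpoints. The concentration for 50% growth inhibition is given as GI50. The concentration for full growth arrest is given as TGI.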

Some test systems named below: MDA-MB-435; CCRF-CEM leukemia; HOP-62 NSCLC; LOX IMVI melanoma; HCT-116 colon; PC-3 prostate; HL-60(TB) leukemia; DU-145 prostate; SNB-19 CNS; HT29 colon.
Holding throughout (assay): growth of human tumour cells (NCI), 48 h

For `COC(=O)[C@@]1(C)CC[C@]2(C)CC[C@]3(C)C4=CC=C5C(=CC(=O)C(O)=C5C)[C@]4(C)CC[C@@]3(C)[C@@H]2C1`, the GI50 with MDA-MB-435 is 0.195 µM; in the experiment on CCRF-CEM leukemia it was 0.21 µM; in the experiment with HOP-62 NSCLC, 0.483 µM; with LOX IMVI melanoma it was 0.174 µM; with HCT-116 colon it was 0.163 µM; in the experiment with PC-3 prostate, 0.24 µM. Moreover, the GI50 with HL-60(TB) leukemia was 0.163 µM; in the experiment on DU-145 prostate, 0.182 µM; with SNB-19 CNS, 0.276 µM; in the experiment on HT29 colon, 0.207 µM. Moreover, the TGI with MDA-MB-435 is 0.503 µM; in the experiment with CCRF-CEM leukemia it was 0.745 µM; in the experiment on HOP-62 NSCLC, 1.54 µM; with LOX IMVI melanoma it was 0.325 µM; in the experiment on HCT-116 colon, 0.32 µM; in the experiment with PC-3 prostate, 0.573 µM. Further, the TGI is 0.684 µM with HL-60(TB) leukemia, 0.382 µM with DU-145 prostate, 0.936 µM in the experiment with SNB-19 CNS and 0.445 µM with HT29 colon.

Turning to `C#COc1cccc(Nc2ncnc3ncc(NC(=O)CCl)cc23)c1`, the GI50 in the experiment on MDA-MB-435 is > 49.8 µM; with HOP-62 NSCLC it was > 62.5 µM; in the experiment with HCT-116 colon, 0.239 µM; in the experiment on PC-3 prostate, > 36.7 µM; with HL-60(TB) leukemia it was > 21.2 µM; in the experiment with DU-145 prostate, > 26.4 µM. Moreover, the GI50 in the experiment with SNB-19 CNS is > 43.3 µM. Besides, the TGI with MDA-MB-435 is > 62.5 µM; with CCRF-CEM leukemia, > 62.5 µM; in the experiment on HOP-62 NSCLC, > 62.5 µM; in the experiment on LOX IMVI melanoma, > 28 µM; in the experiment on HCT-116 colon it was > 62.5 µM; in the experiment on PC-3 prostate, > 62.5 µM. Besides, the TGI in the experiment on HL-60(TB) leukemia was > 45 µM; with DU-145 prostate, > 62.5 µM; in the experiment on SNB-19 CNS, > 62.5 µM; with HT29 colon it was > 62.5 µM.

On to `COc1ccc(-c2nn(-c3cccc(NC(=O)Nc4cc(C(F)(F)F)cc(C(F)(F)F)c4)c3)cc2-c2ccncc2)cc1Cl`, for which the GI50 was 0.959 µM in the experiment on MDA-MB-435; 0.962 µM with CCRF-CEM leukemia; 1.09 µM with HOP-62 NSCLC; 1.51 µM with LOX IMVI melanoma; 0.649 µM in the experiment with HCT-116 colon; 0.448 µM with PC-3 prostate. Moreover, the GI50 was 1.24 µM in the experiment with HL-60(TB) leukemia, 1.96 µM in the experiment with DU-145 prostate, 1.62 µM in the experiment with SNB-19 CNS and 1.29 µM in the experiment with HT29 colon. In addition, the TGI in the experiment on MDA-MB-435 is 3.12 µM; in the experiment on CCRF-CEM leukemia, 3.11 µM; in the experiment with HOP-62 NSCLC it was 3.29 µM; in the experiment on LOX IMVI melanoma it was 5.64 µM; with HCT-116 colon, 2.17 µM; with PC-3 prostate, 2.92 µM. In addition, the TGI in the experiment with HL-60(TB) leukemia is 3.63 µM; in the experiment with DU-145 prostate it was 9.76 µM; in the experiment on SNB-19 CNS it was 18.2 µM; in the experiment with HT29 colon, 5.75 µM.

For `C=C1C(=O)O[C@@H]2C[C@@H]1CC[C@@]1(C)O[C@@H]1CC[C@@]1(C)O[C@@H]1CC[C@@]2(C)O`, the GI50 is 17.4 µM in the experiment with MDA-MB-435; 28.1 µM with CCRF-CEM leukemia; 32.9 µM with HOP-62 NSCLC; 15.7 µM in the experiment with LOX IMVI melanoma; 16.4 µM in the experiment with HCT-116 colon; 34.9 µM in the experiment with PC-3 prostate. In addition, the GI50 with HL-60(TB) leukemia is 10.3 µM; in the experiment with DU-145 prostate, 30.3 µM; in the experiment with SNB-19 CNS it was 17.6 µM; in the experiment with HT29 colon it was 21 µM. For the same compound, the TGI was 68.4 µM in the experiment on MDA-MB-435; > 100 µM with CCRF-CEM leukemia; > 100 µM with HOP-62 NSCLC; 31 µM in the experiment with LOX IMVI melanoma; 32 µM in the experiment with HCT-116 colon; > 100 µM with PC-3 prostate. For the same compound, the TGI in the experiment with HL-60(TB) leukemia is 32.8 µM; with DU-145 prostate it was > 100 µM; in the experiment with SNB-19 CNS, 66 µM; in the experiment with HT29 colon, 63.2 µM.

With `COc1cc([C@@H]2c3cc4c(cc3[C@@H](O[C@@H]3O[C@@H]5CO[C@@H](c6cccs6)O[C@H]5[C@H](O)[C@H]3O)[C@H]3COC(=O)[C@H]23)OCO4)cc(OC)c1O`, the GI50 with MDA-MB-435 was 1.15 µM; with CCRF-CEM leukemia, 0.0704 µM; in the experiment with HOP-62 NSCLC, 0.197 µM; in the experiment on LOX IMVI melanoma, 0.0969 µM; with HCT-116 colon, 0.344 µM; in the experiment on PC-3 prostate, 1.69 µM. Further, the GI50 is 0.119 µM in the experiment with HL-60(TB) leukemia, 0.288 µM in the experiment on DU-145 prostate, 0.167 µM in the experiment with SNB-19 CNS and 0.614 µM in the experiment on HT29 colon. The TGI is > 39.2 µM with MDA-MB-435; > 100 µM in the experiment with CCRF-CEM leukemia; 2.34 µM with HOP-62 NSCLC; 2.26 µM in the experiment with LOX IMVI melanoma; 4.81 µM in the experiment on HCT-116 colon; > 69.7 µM in the experiment with PC-3 prostate. The TGI was 0.967 µM in the experiment on HL-60(TB) leukemia, 3.43 µM in the experiment with DU-145 prostate, > 100 µM in the experiment on SNB-19 CNS and 3.66 µM in the experiment with HT29 colon.

Regarding `O=C(NNC(=O)c1ccncc1)c1ccncc1`, the TGI in the experiment with MDA-MB-435, in the experiment on CCRF-CEM leukemia, with HOP-62 NSCLC, with LOX IMVI melanoma, in the experiment on HCT-116 colon and with PC-3 prostate was > 100 µM throughout. For the same compound, the TGI in the experiment on HL-60(TB) leukemia, with DU-145 prostate, in the experiment with SNB-19 CNS and in the experiment on HT29 colon was > 100 µM each time.

In the case of `C=C1CCC2C3(C)COC(c4ccc(SC)cc4)OC3CCC2(C)C1C/C=C1/C(=O)OCC1O` (configuration not stated), the GI50 in the experiment with MDA-MB-435 is 3.69 µM; in the experiment on CCRF-CEM leukemia, 2.92 µM; in the experiment with HOP-62 NSCLC it was 17.3 µM; in the experiment with LOX IMVI melanoma it was 1.44 µM; in the experiment with HCT-116 colon it was 1.76 µM; in the experiment on PC-3 prostate it was 5.67 µM. In addition, the GI50 in the experiment with HL-60(TB) leukemia was 2.59 µM; in the experiment on DU-145 prostate it was 11.5 µM; with SNB-19 CNS, 16.8 µM; with HT29 colon, 2.42 µM. Further, the TGI in the experiment with MDA-MB-435 stood at 16.4 µM; in the experiment on CCRF-CEM leukemia, 13.7 µM; in the experiment with HOP-62 NSCLC, 32.8 µM; in the experiment on LOX IMVI melanoma it was 3.01 µM; in the experiment on HCT-116 colon, 3.44 µM; in the experiment on PC-3 prostate, 20.2 µM. Further, the TGI in the experiment with HL-60(TB) leukemia was determined as 7.87 µM; with DU-145 prostate, 23.7 µM; in the experiment on SNB-19 CNS, 30.6 µM; with HT29 colon, 7.02 µM.

Regarding `CC(=O)OC(C)(C)N=Nc1ccc(Br)cc1`, the TGI in the experiment with MDA-MB-435 is > 100 µM; with CCRF-CEM leukemia, > 78.5 µM; in the experiment on HOP-62 NSCLC, > 100 µM; with LOX IMVI melanoma it was 33.7 µM; with HCT-116 colon, > 100 µM; with PC-3 prostate it was > 100 µM. In addition, the TGI with HL-60(TB) leukemia is 28 µM; with DU-145 prostate it was > 100 µM; in the experiment on SNB-19 CNS, > 100 µM; with HT29 colon it was > 100 µM.
